PubChem BioAssay AID1963954
Calls of active or inactive are those of the source.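 How the source made its calls: active means IL-1b release lowered by over 30% against vehicle-treated cells of the same ATG16L1 genotype; inactive means the rest.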

Tested on: mouse BMDM IL-1b secretion, LPS+ATP, ELISA
Assay: reduction of stimulated IL-1b secretion in BMDMs – cell-based, mouse BMDMs, ATG16L1 wt and T300A, LPS+ATP (AID 1963954)
Details: at 40 µM, stronger effect = lower value

Row | Structure (SMILES) | normalized IL-1b secretion (with LPS + ATP, ATG16L1 T300A) | normalized IL-1b secretion (with LPS + ATP, ATG16L1 wt) | normalized IL-1b secretion (unstimulated, ATG16L1 T300A) | normalized IL-1b secretion (unstimulated, ATG16L1 wt)
1 | CCC(C)(C)C(=O)C(=O)N1CCCC[C@H]1C(=O)N[C@H](CCc1ccc(OC)cc1)C(=O)N1[C@@H]2CC[C@H]1CC(Nc1nc(NCCc3sc(N)nc3C)nc(N3CCn4ncnc4C3)n1)C2 (stereo partly specified) | 0.39 | 0.37 |  | 
2 | CS(C)=O | 1.39 (inactive) | 1 (inactive) | 0.05 (inactive) | 0 (inactive)
